Measured values taken from the supplement of paper PMC13207355.

Key:
Conditions in all cases: exposure time: 72 h
[1] = system: E13 (patient-derived glioblastoma stem cells of classical subtype); assay: phenotypic distance (Euclidean, principal components) from DMSO controls (arbitrary units); higher = stronger morphological change
[2] = system: FT3469 (normal neural stem cell line); assay: as above
[3] = system: E31 (patient-derived glioblastoma stem cells of proneural subtype); assay: as above
[4] = system: E34 (patient-derived glioblastoma stem cells of proneural subtype); assay: as above
[5] = system: E28 (patient-derived glioblastoma stem cells of classical subtype); assay: as above
[6] = system: E57 (patient-derived glioblastoma stem cells of mesenchymal subtype); assay: as above
[7] = system: E21 (patient-derived glioblastoma stem cells of mesenchymal subtype); assay: as above
[8] = system: E13; assay: surviving fraction (nuclei count normalised to DMSO); higher = more cells surviving (less toxic)
[9] = system: FT3469; assay: as above
[10] = system: E31; assay: as above
[11] = system: E34; assay: as above
[12] = system: E28; assay: as above
[13] = system: E57; assay: as above
[14] = system: E21; assay: as above
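Throughout, for phenotypic distance (Euclidean, principal components) from DMSO controls: cell Painting imaging in 384-well plates, CellProfiler features reduced to at least 20 principal components, Euclidean distance versus same-plate DMSO vehicle wells (0.1% v/v), median over six images per well.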
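Throughout, for surviving fraction (nuclei count normalised to DMSO): nuclei counted by high-content imaging of Hoechst-stained cells in laminin-coated 384-well plates, relative to 0.1% DMSO vehicle wells, with staurosporine as cell-death control.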

Clc1ccc(COC(Cn2ccnc2)c2ccc(Cl)cc2Cl)c(Cl)c1 (centres undefined) [Miconazole]
Conditions	phenotypic distance	surviving fraction
[1], 4.1 nM	0.853	–
[1], 12.3 nM	0.53	–
[1], 37 nM	0.487	–
[1], 111.1 nM	0.696	–
[1], 333.3 nM	1.05	–
[1], 1000 nM	1.1	–
[1], 3000 nM	2.12	–
[2], 4.1 nM	0.444	–
[2], 12.3 nM	0.593	–
[2], 37 nM	0.461	–
[2], 111.1 nM	0.559	–
[2], 333.3 nM	0.587	–
[2], 1000 nM	0.791	–
[2], 3000 nM	2.66	–
[3], 4.1 nM	0.925	–
[3], 12.3 nM	0.493	–
[3], 37 nM	1.32	–
[3], 111.1 nM	0.834	–
[3], 333.3 nM	1.3	–
[3], 1000 nM	1.07	–
[3], 3000 nM	1.51	–
[4], 4.1 nM	0.501	–
[4], 12.3 nM	0.465	–
[4], 37 nM	0.883	–
[4], 111.1 nM	0.636	–
[4], 333.3 nM	0.903	–
[4], 1000 nM	0.701	–
[4], 3000 nM	1.2	–
[5], 4.1 nM	0.619	–
[5], 12.3 nM	0.863	–
[5], 37 nM	0.65	–
[5], 111.1 nM	0.493	–
[5], 333.3 nM	0.784	–
[5], 1000 nM	0.766	–
[5], 3000 nM	1.23	–
[6], 4.1 nM	0.349	–
[6], 12.3 nM	0.269	–
[6], 37 nM	0.652	–
[6], 111.1 nM	1.25	–
[6], 333.3 nM	0.929	–
[6], 1000 nM	1.89	–
[6], 3000 nM	3.89	–
[7], 4.1 nM	0.64	–
[7], 12.3 nM	0.477	–
[7], 37 nM	0.693	–
[7], 111.1 nM	0.637	–
[7], 333.3 nM	0.796	–
[7], 1000 nM	1.19	–
[7], 3000 nM	2.32	–
[8], 4.1 nM	–	0.787
[8], 12.3 nM	–	1.01
[8], 37 nM	–	0.925
[8], 111.1 nM	–	0.818
[8], 333.3 nM	–	0.709
[8], 1000 nM	–	0.814
[8], 3000 nM	–	0.539
[9], 4.1 nM	–	1.17
[9], 12.3 nM	–	1.07
[9], 37 nM	–	0.966
[9], 111.1 nM	–	0.907
[9], 333.3 nM	–	0.954
[9], 1000 nM	–	0.875
[9], 3000 nM	–	0.492
[10], 4.1 nM	–	1
[10], 12.3 nM	–	1.04
[10], 37 nM	–	1.37
[10], 111.1 nM	–	0.936
[10], 333.3 nM	–	1.13
[10], 1000 nM	–	1.06
[10], 3000 nM	–	0.976
[11], 4.1 nM	–	0.9
[11], 12.3 nM	–	0.972
[11], 37 nM	–	1
[11], 111.1 nM	–	0.977
[11], 333.3 nM	–	1.01
[11], 1000 nM	–	0.981
[11], 3000 nM	–	0.82
[12], 4.1 nM	–	1.09
[12], 12.3 nM	–	1.19
[12], 37 nM	–	1.06
[12], 111.1 nM	–	1.13
[12], 333.3 nM	–	1.07
[12], 1000 nM	–	0.886
[12], 3000 nM	–	0.537
[13], 4.1 nM	–	1.04
[13], 12.3 nM	–	1.09
[13], 37 nM	–	1.1
[13], 111.1 nM	–	1.06
[13], 333.3 nM	–	1.07
[13], 1000 nM	–	0.918
[13], 3000 nM	–	0.595
[14], 4.1 nM	–	0.897
[14], 12.3 nM	–	1.05
[14], 37 nM	–	0.979
[14], 111.1 nM	–	1.01
[14], 333.3 nM	–	1.02
[14], 1000 nM	–	0.955
[14], 3000 nM	–	0.823

COc1ccc(C(=O)CC(=O)c2ccc(C(C)(C)C)cc2)cc1 [Avobenzone]
Conditions	phenotypic distance	surviving fraction
[1], 4.1 nM	1.11	–
[1], 12.3 nM	0.579	–
[1], 37 nM	0.386	–
[1], 111.1 nM	0.499	–
[1], 333.3 nM	0.627	–
[1], 1000 nM	0.606	–
[1], 3000 nM	0.743	–
[2], 4.1 nM	0.579	–
[2], 12.3 nM	0.768	–
[2], 37 nM	0.688	–
[2], 111.1 nM	0.824	–
[2], 333.3 nM	0.788	–
[2], 1000 nM	2.5	–
[2], 3000 nM	0.402	–
[3], 4.1 nM	0.665	–
[3], 12.3 nM	0.919	–
[3], 37 nM	0.653	–
[3], 111.1 nM	0.43	–
[3], 333.3 nM	0.486	–
[3], 1000 nM	0.737	–
[3], 3000 nM	0.899	–
[4], 4.1 nM	0.805	–
[4], 12.3 nM	0.881	–
[4], 37 nM	0.524	–
[4], 111.1 nM	0.804	–
[4], 333.3 nM	0.741	–
[4], 1000 nM	0.759	–
[4], 3000 nM	1.45	–
[5], 4.1 nM	1.01	–
[5], 12.3 nM	0.675	–
[5], 37 nM	0.613	–
[5], 111.1 nM	0.631	–
[5], 333.3 nM	0.646	–
[5], 1000 nM	0.601	–
[5], 3000 nM	0.879	–
[6], 4.1 nM	0.899	–
[6], 12.3 nM	1.11	–
[6], 37 nM	0.644	–
[6], 111.1 nM	0.447	–
[6], 333.3 nM	1.15	–
[6], 1000 nM	0.55	–
[6], 3000 nM	1.16	–
[7], 4.1 nM	0.845	–
[7], 12.3 nM	0.782	–
[7], 37 nM	0.67	–
[7], 111.1 nM	0.818	–
[7], 333.3 nM	0.929	–
[7], 1000 nM	0.701	–
[7], 3000 nM	1.59	–
[8], 4.1 nM	–	0.902
[8], 12.3 nM	–	1.02
[8], 37 nM	–	1.08
[8], 111.1 nM	–	0.948
[8], 333.3 nM	–	1.11
[8], 1000 nM	–	1.07
[8], 3000 nM	–	0.8
[9], 4.1 nM	–	1.08
[9], 12.3 nM	–	1.38
[9], 37 nM	–	1
[9], 111.1 nM	–	1.2
[9], 333.3 nM	–	0.863
[9], 1000 nM	–	1.25
[9], 3000 nM	–	0.973
[10], 4.1 nM	–	0.989
[10], 12.3 nM	–	1.02
[10], 37 nM	–	1.02
[10], 111.1 nM	–	0.921
[10], 333.3 nM	–	0.973
[10], 1000 nM	–	1.06
[10], 3000 nM	–	0.941
[11], 4.1 nM	–	1.08
[11], 12.3 nM	–	0.923
[11], 37 nM	–	0.995
[11], 111.1 nM	–	1.06
[11], 333.3 nM	–	1.04
[11], 1000 nM	–	1.03
[11], 3000 nM	–	0.818
[12], 4.1 nM	–	1.14
[12], 12.3 nM	–	1.14
[12], 37 nM	–	1.14
[12], 111.1 nM	–	0.988
[12], 333.3 nM	–	1.06
[12], 1000 nM	–	1.12
[12], 3000 nM	–	0.739
[13], 4.1 nM	–	1.04
[13], 12.3 nM	–	1.07
[13], 37 nM	–	1.02
[13], 111.1 nM	–	0.975
[13], 333.3 nM	–	1.12
[13], 1000 nM	–	1.03
[13], 3000 nM	–	0.96
[14], 4.1 nM	–	1.1
[14], 12.3 nM	–	1.17
[14], 37 nM	–	1.05
[14], 111.1 nM	–	1.13
[14], 333.3 nM	–	1.13
[14], 1000 nM	–	1.07
[14], 3000 nM	–	0.82

CCOC(=O)C1=C(C)NC(C)=C(C(=O)OCC)C1c1c(F)c(F)c(F)c(F)c1F [Nemadipine-A]
Conditions	phenotypic distance	surviving fraction
[1], 4.1 nM	0.957	–
[1], 12.3 nM	0.892	–
[1], 37 nM	0.571	–
[1], 111.1 nM	0.762	–
[1], 333.3 nM	0.542	–
[1], 1000 nM	0.692	–
[1], 3000 nM	0.903	–
[2], 4.1 nM	0.624	–
[2], 12.3 nM	0.608	–
[2], 37 nM	0.488	–
[2], 111.1 nM	0.574	–
[2], 333.3 nM	0.712	–
[2], 1000 nM	0.892	–
[2], 3000 nM	1.01	–
[3], 4.1 nM	0.932	–
[3], 12.3 nM	0.387	–
[3], 37 nM	0.906	–
[3], 111.1 nM	0.74	–
[3], 333.3 nM	1.01	–
[3], 1000 nM	0.415	–
[3], 3000 nM	0.913	–
[4], 4.1 nM	0.666	–
[4], 12.3 nM	0.857	–
[4], 37 nM	0.641	–
[4], 111.1 nM	0.619	–
[4], 333.3 nM	0.843	–
[4], 1000 nM	0.698	–
[4], 3000 nM	0.734	–
[5], 4.1 nM	0.43	–
[5], 12.3 nM	0.613	–
[5], 37 nM	0.807	–
[5], 111.1 nM	0.686	–
[5], 333.3 nM	0.703	–
[5], 1000 nM	0.642	–
[5], 3000 nM	1.14	–
[6], 4.1 nM	0.523	–
[6], 12.3 nM	0.695	–
[6], 37 nM	0.79	–
[6], 111.1 nM	0.477	–
[6], 333.3 nM	1.46	–
[6], 1000 nM	0.54	–
[6], 3000 nM	1.46	–
[7], 4.1 nM	0.903	–
[7], 12.3 nM	0.665	–
[7], 37 nM	0.548	–
[7], 111.1 nM	0.745	–
[7], 333.3 nM	0.572	–
[7], 1000 nM	0.681	–
[7], 3000 nM	1.4	–
[8], 4.1 nM	–	0.797
[8], 12.3 nM	–	0.944
[8], 37 nM	–	0.915
[8], 111.1 nM	–	0.841
[8], 333.3 nM	–	0.948
[8], 1000 nM	–	1.09
[8], 3000 nM	–	0.764
[9], 4.1 nM	–	1.03
[9], 12.3 nM	–	0.928
[9], 37 nM	–	1.17
[9], 111.1 nM	–	1.02
[9], 333.3 nM	–	0.866
[9], 1000 nM	–	1.1
[9], 3000 nM	–	0.804
[10], 4.1 nM	–	1.15
[10], 12.3 nM	–	1.05
[10], 37 nM	–	1.01
[10], 111.1 nM	–	1.26
[10], 333.3 nM	–	1.3
[10], 1000 nM	–	1.15
[10], 3000 nM	–	1.13
[11], 4.1 nM	–	1.01
[11], 12.3 nM	–	0.767
[11], 37 nM	–	1.14
[11], 111.1 nM	–	1.16
[11], 333.3 nM	–	1.13
[11], 1000 nM	–	0.926
[11], 3000 nM	–	0.909
[12], 4.1 nM	–	0.9
[12], 12.3 nM	–	1.03
[12], 37 nM	–	0.81
[12], 111.1 nM	–	0.996
[12], 333.3 nM	–	0.945
[12], 1000 nM	–	0.934
[12], 3000 nM	–	0.704
[13], 4.1 nM	–	0.945
[13], 12.3 nM	–	1.07
[13], 37 nM	–	1.04
[13], 111.1 nM	–	0.954
[13], 333.3 nM	–	1.03
[13], 1000 nM	–	0.984
[13], 3000 nM	–	0.77
[14], 4.1 nM	–	0.897
[14], 12.3 nM	–	0.936
[14], 37 nM	–	0.991
[14], 111.1 nM	–	0.971
[14], 333.3 nM	–	0.924
[14], 1000 nM	–	0.931
[14], 3000 nM	–	0.838
